Experimental data as given in publication PMC3724770 (ACS combinatorial science, 2012).

Biological target: T1, fms-like receptor tyrosine kinase-3 (FLT3) (Homo sapiens, UniProt P36888)
T1 sequence (P36888 27-993): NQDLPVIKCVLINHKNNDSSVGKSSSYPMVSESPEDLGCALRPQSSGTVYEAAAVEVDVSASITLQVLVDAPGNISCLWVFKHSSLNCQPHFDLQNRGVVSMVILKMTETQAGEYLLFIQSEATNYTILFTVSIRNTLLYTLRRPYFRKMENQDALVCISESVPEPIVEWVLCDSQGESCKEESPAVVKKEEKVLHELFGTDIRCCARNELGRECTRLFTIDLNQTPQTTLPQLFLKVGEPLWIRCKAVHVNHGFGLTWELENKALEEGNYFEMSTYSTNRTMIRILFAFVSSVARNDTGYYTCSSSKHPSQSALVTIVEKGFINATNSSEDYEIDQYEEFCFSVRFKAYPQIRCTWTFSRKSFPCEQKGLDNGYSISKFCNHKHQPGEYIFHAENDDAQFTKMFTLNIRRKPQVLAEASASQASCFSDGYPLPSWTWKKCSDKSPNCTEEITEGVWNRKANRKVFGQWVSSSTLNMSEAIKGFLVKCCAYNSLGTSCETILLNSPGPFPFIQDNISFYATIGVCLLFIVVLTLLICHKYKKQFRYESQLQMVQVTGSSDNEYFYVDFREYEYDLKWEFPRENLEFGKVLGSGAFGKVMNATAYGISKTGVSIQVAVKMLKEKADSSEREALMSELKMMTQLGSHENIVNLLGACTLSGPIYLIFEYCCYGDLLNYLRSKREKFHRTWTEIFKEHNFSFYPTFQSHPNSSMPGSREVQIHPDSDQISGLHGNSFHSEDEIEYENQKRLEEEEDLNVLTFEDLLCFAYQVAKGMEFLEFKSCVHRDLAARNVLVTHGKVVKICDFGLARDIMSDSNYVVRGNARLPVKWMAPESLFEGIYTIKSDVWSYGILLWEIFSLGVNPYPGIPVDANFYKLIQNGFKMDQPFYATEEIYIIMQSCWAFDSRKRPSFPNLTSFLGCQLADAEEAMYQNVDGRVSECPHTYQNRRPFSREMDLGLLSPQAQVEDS
Assay type: biochemical

**Q.** Which IC50 does the source give for CCCCNc1ncnc2c(N3CCNCC3)c[nH]c12 [compound 9, N-butyl-7-(piperazin-1-yl)-5H-pyrrolo[3,2-d]pyrimidin-4-amine] here?
**A.** Its IC50 is 1920 nM.
